Assay results from patent US20260077018A1, “TREATMENT OF MILD TRAUMATIC BRAIN INJURY” (OXEIA BIOPHARMACEUTICALS, INC., priority 2022, published 2026).
No end group written: not given here. *: point of attachment. Octanoyl = CCCCCCCC(=O)*

System: persistently symptomatic concussion patients
Assay: Phase 2 study of OXE-103 in persistently symptomatic concussion: PCSS symptom scoring
Assay type: in vivo, human
Conditions: for PCSS symptom balance_problems / PCSS symptom difficulty_concentrating / PCSS symptom difficulty_remembering / PCSS symptom dizziness / PCSS symptom drowsiness / PCSS symptom fatigue / PCSS symptom feeling_in_a_fog / PCSS symptom feeling_more_emotional / PCSS symptom feeling_slowed_down / PCSS symptom headache / PCSS symptom irritability / PCSS symptom nausea / PCSS symptom neck_pain / PCSS symptom nervous_anxious / PCSS symptom numbness_or_tingling / PCSS symptom sadness / PCSS symptom sensitivity_to_light / PCSS symptom sensitivity_to_noise / PCSS symptom sleeping_less_than_usual / PCSS symptom sleeping_more_than_usual / PCSS symptom trouble_falling_asleep / PCSS symptom visual_problems / PCSS symptom vomiting: aggregated; for 20% Responders - PCSS: Number of Responders / 20% Responders - PCSS: Responder % / 30% Responders - PCSS: Number of Responders / 30% Responders - PCSS: Responder %: Treated, 13 subjects
Text: Describe the change in symptom burden in sub-acute concussion for the two groups. A maximum of 50 subjects are enrolled, but recruiting stops if each arm has 20 participants, diagnosed with persistent concussion symptoms 28 days post injury who complete the study. Patients are randomized 1:1 to placebo versus OXE-103. The Post-Concussion Symptom Score questionnaire (PCSS) is used as an overall measure of symptom burden. The number of symptoms and severity at each time point are also measures of interest. In addition, subjects are asked to identify and rank the 4 most bothersome symptoms. Without being bound by theory, it is hypothesized that changes in these most bothersome symptoms have a higher correlation to improvement in quality of life. A visual comparison of change in the two groups is made. A change of 20% is considered to be clinically meaningful. This primary aim describes the change in symptoms between day 1 and day 14.
Described herein is a randomized, double-blind, placebo-controlled design where 40 subjects will be randomized to either a placebo cohort or a treatment with OXE-103 cohort. We randomize using the RedCap database. The database is set up to share randomization allocation only with the investigational pharmacy. All subjects are consented and begin the screening period within 28 days post-injury. There is a 7-day screening period prior to randomization and commencement of study treatment to allow for assessment of stability of symptom burden. This screening period must start no later than 28 days post-injury. Starting with Day 1 (end of screening period), the treatment cohort receives OXE-103 40ug/kg SC twice daily by self-injection and the placebo group receives a placebo injection SC twice daily. Study drug and placebo are maintained and dispensed by Investigational Pharmacy. Subjects receive an 8-day supply of syringes pre-loaded with OXE-103 or placebo. Each cohort receives the 2nd set of syringes with OXE-103 or placebo at the day 7 visit. No therapies other than OXE-103 are administered during the 14-day treatment period to either cohort. After completion of 14 days of either placebo or OXE-103 treatment, starting with the Day 14 visit, other medications and therapies can be initiated for either cohort as needed.
Symptom reduction (AIM 1): Our primary goal is to describe the change in number of symptoms and/or severity in sub-acute concussion with treatment with OXE-103 using the PCSS at days 1 and 15. We will also collect data at days 21 and 44 to potentially describe long term changes and potential lasting effect (AIM 4).
Subjects complete the PCSS at the following timepoints[17]: upon signing consent (score must 20) (day −7), mid-way through the screening period (day −3), prior to assignment of a treatment cohort (score must 20) (day 1), as well as days 4, 8, 11, 15, 21 and 44. Subjects are instructed to record their symptoms at the same time of day for each assessment timepoint. There can be a two-hour window either way. (e.g. 12 PM+/−2 hrs.) The PCSS is recorded via a RedCap survey. The PCSS is a self-reported assessment of 22 symptoms using a Likert-type scale ranging from 0-6, with 0 indicating no difficulty with the outlined symptom and ratings of 1-6 representing mild-to-severe difficulty with the symptom. The reliability and validity of the PCSS are well documented We also ask subjects to rank their 4 most burdensome symptoms (4MBS) at Day 1 and we analyze these separately. As stated in the Specific Aims the purpose of this study is to collect data that would further refine clinical endpoints that could be used for larger Phase 2 studies and possibly lead to the establishment of pivotal endpoints for Phase 3 registration trials. The 22 symptom PCSS assessment is designed to cover the full spectrum of concussion related symptoms across cognitive, emotional and somatic domains. In that regard the PCSS is particularly useful for diagnosis and monitoring recovery of patients post injury. […]

## ghrelin (GSS(Octanoyl)FLSPEHQRVQQRKESKKPPAKLQPR; UniProt Q9UBU3 24-51, looked up) [OXE-103, naturally occurring peptide comprising 28 amino acids that include an N-octanoyl group at the 3-position of serine]
Day 1, OXE-103 Treated
  PCSS symptom balance_problems: 30
  PCSS symptom difficulty_concentrating: 46
  PCSS symptom difficulty_remembering: 48
  PCSS symptom dizziness: 37
  PCSS symptom drowsiness: 38
  PCSS symptom fatigue: 43
  PCSS symptom feeling_in_a_fog: 46
  PCSS symptom feeling_more_emotional: 31
  PCSS symptom feeling_slowed_down: 46
  PCSS symptom headache: 37
  PCSS symptom irritability: 35
  PCSS symptom nausea: 18
  PCSS symptom neck_pain: 38
  PCSS symptom nervous_anxious: 35
  PCSS symptom numbness_or_tingling: 16
  PCSS symptom sadness: 28
  PCSS symptom sensitivity_to_light: 35
  PCSS symptom sensitivity_to_noise: 36
  PCSS symptom sleeping_less_than_usual: 15
  PCSS symptom sleeping_more_than_usual: 24
  PCSS symptom trouble_falling_asleep: 37
  PCSS symptom visual_problems: 30
  PCSS symptom vomiting: 2
Day 1
  20% Responders - PCSS: Number of Responders: 0
  20% Responders - PCSS: Responder %: 0%
  30% Responders - PCSS: Number of Responders: 0
  30% Responders - PCSS: Responder %: 0%
Day 4, OXE-103 Treated
  PCSS symptom balance_problems: 25
  PCSS symptom difficulty_concentrating: 37
  PCSS symptom difficulty_remembering: 35
  PCSS symptom dizziness: 35
  PCSS symptom drowsiness: 39
  PCSS symptom fatigue: 44
  PCSS symptom feeling_in_a_fog: 30
  PCSS symptom feeling_more_emotional: 24
  PCSS symptom feeling_slowed_down: 33
  PCSS symptom headache: 29
  PCSS symptom irritability: 30
  PCSS symptom nausea: 11
  PCSS symptom neck_pain: 29
  PCSS symptom nervous_anxious: 25
  PCSS symptom numbness_or_tingling: 6
  PCSS symptom sadness: 17
  PCSS symptom sensitivity_to_light: 25
  PCSS symptom sensitivity_to_noise: 26
  PCSS symptom sleeping_less_than_usual: 23
  PCSS symptom sleeping_more_than_usual: 32
  PCSS symptom trouble_falling_asleep: 32
  PCSS symptom visual_problems: 18
  PCSS symptom vomiting: 1
Day 4
  20% Responders - PCSS: Number of Responders: 4
  20% Responders - PCSS: Responder %: 31%
  30% Responders - PCSS: Number of Responders: 3
  30% Responders - PCSS: Responder %: 23%
Day 8, OXE-103 Treated
  PCSS symptom balance_problems: 30
  PCSS symptom difficulty_concentrating: 41
  PCSS symptom difficulty_remembering: 35
  PCSS symptom dizziness: 28
  PCSS symptom drowsiness: 41
  PCSS symptom fatigue: 45
  PCSS symptom feeling_in_a_fog: 34
  PCSS symptom feeling_more_emotional: 33
  PCSS symptom feeling_slowed_down: 36
  PCSS symptom headache: 34
  PCSS symptom irritability: 36
  PCSS symptom nausea: 15
  PCSS symptom neck_pain: 26
  PCSS symptom nervous_anxious: 34
  PCSS symptom numbness_or_tingling: 12
  PCSS symptom sadness: 32
  PCSS symptom sensitivity_to_light: 20
  PCSS symptom sensitivity_to_noise: 23
  PCSS symptom sleeping_less_than_usual: 32
  PCSS symptom sleeping_more_than_usual: 20
  PCSS symptom trouble_falling_asleep: 32
  PCSS symptom visual_problems: 23
  PCSS symptom vomiting: 1
Day 8
  20% Responders - PCSS: Number of Responders: 3
  20% Responders - PCSS: Responder %: 23%
  30% Responders - PCSS: Number of Responders: 2
  30% Responders - PCSS: Responder %: 15%
Day 11, OXE-103 Treated
  PCSS symptom balance_problems: 24
  PCSS symptom difficulty_concentrating: 23
  PCSS symptom difficulty_remembering: 28
  PCSS symptom dizziness: 18
  PCSS symptom drowsiness: 33
  PCSS symptom fatigue: 36
  PCSS symptom feeling_in_a_fog: 23
  PCSS symptom feeling_more_emotional: 20
  PCSS symptom feeling_slowed_down: 27
  PCSS symptom headache: 21
  PCSS symptom irritability: 28
  PCSS symptom nausea: 10
  PCSS symptom neck_pain: 18
  PCSS symptom nervous_anxious: 19
  PCSS symptom numbness_or_tingling: 5
  PCSS symptom sadness: 22
  PCSS symptom sensitivity_to_light: 18
  PCSS symptom sensitivity_to_noise: 19
  PCSS symptom sleeping_less_than_usual: 15
  PCSS symptom sleeping_more_than_usual: 19
  PCSS symptom trouble_falling_asleep: 21
  PCSS symptom visual_problems: 12
  PCSS symptom vomiting: 1
Day 11
  20% Responders - PCSS: Number of Responders: 9
  20% Responders - PCSS: Responder %: 69%
  30% Responders - PCSS: Number of Responders: 7
  30% Responders - PCSS: Responder %: 54%
Day 15, OXE-103 Treated
  PCSS symptom balance_problems: 22
  PCSS symptom difficulty_concentrating: 30
  PCSS symptom difficulty_remembering: 26
  PCSS symptom dizziness: 21
  PCSS symptom drowsiness: 25
  PCSS symptom fatigue: 30
  PCSS symptom feeling_in_a_fog: 20
  PCSS symptom feeling_more_emotional: 22
  PCSS symptom feeling_slowed_down: 23
  PCSS symptom headache: 25
  PCSS symptom irritability: 25
  PCSS symptom nausea: 6
  PCSS symptom neck_pain: 20
  PCSS symptom nervous_anxious: 23
  PCSS symptom numbness_or_tingling: 5
  PCSS symptom sadness: 21
  PCSS symptom sensitivity_to_light: 18
  PCSS symptom sensitivity_to_noise: 16
  PCSS symptom sleeping_less_than_usual: 22
  PCSS symptom sleeping_more_than_usual: 15
  PCSS symptom trouble_falling_asleep: 25
  PCSS symptom visual_problems: 17
  PCSS symptom vomiting: 1
Day 15
  20% Responders - PCSS: Number of Responders: 9
  20% Responders - PCSS: Responder %: 69%
  30% Responders - PCSS: Number of Responders: 7
  30% Responders - PCSS: Responder %: 54%
Day 21, OXE-103 Treated
  PCSS symptom balance_problems: 23
  PCSS symptom difficulty_concentrating: 24
  PCSS symptom difficulty_remembering: 26
  PCSS symptom dizziness: 23
  PCSS symptom drowsiness: 26
  PCSS symptom fatigue: 28
  PCSS symptom feeling_in_a_fog: 24
  PCSS symptom feeling_more_emotional: 19
  PCSS symptom feeling_slowed_down: 26
  PCSS symptom headache: 23
  PCSS symptom irritability: 21
  PCSS symptom nausea: 12
  PCSS symptom neck_pain: 21
  PCSS symptom nervous_anxious: 16
  PCSS symptom numbness_or_tingling: 6
  PCSS symptom sadness: 14
  PCSS symptom sensitivity_to_light: 21
  PCSS symptom sensitivity_to_noise: 18
  PCSS symptom sleeping_less_than_usual: 19
  PCSS symptom sleeping_more_than_usual: 15
  PCSS symptom trouble_falling_asleep: 24
  PCSS symptom visual_problems: 19
  PCSS symptom vomiting: 0
Day 21
  20% Responders - PCSS: Number of Responders: 9
  20% Responders - PCSS: Responder %: 69%
  30% Responders - PCSS: Number of Responders: 8
  30% Responders - PCSS: Responder %: 62%
Day 44, OXE-103 Treated
  PCSS symptom balance_problems: 12
  PCSS symptom difficulty_concentrating: 16
  PCSS symptom difficulty_remembering: 21
  PCSS symptom dizziness: 9
  PCSS symptom drowsiness: 16
  PCSS symptom fatigue: 17
  PCSS symptom feeling_in_a_fog: 16
  PCSS symptom feeling_more_emotional: 7
  PCSS symptom feeling_slowed_down: 18
  PCSS symptom headache: 15
  PCSS symptom irritability: 10
  PCSS symptom nausea: 7
  PCSS symptom neck_pain: 14
  PCSS symptom nervous_anxious: 11
  PCSS symptom numbness_or_tingling: 6
  PCSS symptom sadness: 8
  PCSS symptom sensitivity_to_light: 9
  PCSS symptom sensitivity_to_noise: 13
  PCSS symptom sleeping_less_than_usual: 11
  PCSS symptom sleeping_more_than_usual: 8
  PCSS symptom trouble_falling_asleep: 16
  PCSS symptom visual_problems: 9
  PCSS symptom vomiting: 1
Day 44
  20% Responders - PCSS: Number of Responders: 11
  20% Responders - PCSS: Responder %: 85%
  30% Responders - PCSS: Number of Responders: 9
  30% Responders - PCSS: Responder %: 69%
Aggregated across 11 OXE-103 treatment responders per symptom
  PCSS symptoms, change from Day 1 to Day 44 (FIG. 14): reduction in all symptoms
reduction, OXE-103 Treated
  balance_problems % change from day 1 to day 44: 60%
  difficulty_concentrating % change from day 1 to day 44: 65%
  difficulty_remembering % change from day 1 to day 44: 56%
  dizziness % change from day 1 to day 44: 76%
  drowsiness % change from day 1 to day 44: 58%
  fatigue % change from day 1 to day 44: 60%
  feeling_in_a_fog % change from day 1 to day 44: 65%
  feeling_more_emotional % change from day 1 to day 44: 77%
  feeling_slowed_down % change from day 1 to day 44: 61%
  headache % change from day 1 to day 44: 59%
  irritability % change from day 1 to day 44: 71%
  nausea % change from day 1 to day 44: 61%
  neck_pain % change from day 1 to day 44: 63%
  nervous_anxious % change from day 1 to day 44: 69%
  numbness_or_tingling % change from day 1 to day 44: 63%
  sadness % change from day 1 to day 44: 71%
  sensitivity_to_light % change from day 1 to day 44: 74%
  sensitivity_to_noise % change from day 1 to day 44: 64%
  sleeping_less_than_usual % change from day 1 to day 44: 27%
  sleeping_more_than_usual % change from day 1 to day 44: 67%
  trouble_falling_asleep % change from day 1 to day 44: 57%
  visual_problems % change from day 1 to day 44: 70%
  vomiting % change from day 1 to day 44: 50%
